# Assay results taken from publication PMC4999056 (European Journal of Medicinal Chemistry, 2016).
# Where two headings read alike, the source gives them in different places.
# How the values were obtained:
# in vitro [1] = assay: in vitro
# DENV (serotype 2) = assay: microbe, parasite or virus in culture; type: cell-based, Dengue virus serotype 2; conditions: for EC50: read-out: Dengue EC50
# in vitro [2] = conditions: chlorocebus aethiops
# YFV = assay: microbe, parasite or virus in culture; type: cell-based, yellow fever virus; conditions: for EC50: Yellow fever virus, Vero B, read-out: Yellow fever EC50
Structure (SMILES),CC50 (in vitro [1]; chlorocebus aethiops),Dengue SI (DENV (serotype 2)),"EC50 (DENV (serotype 2); Dengue virus, Vero B)",CC50 (in vitro [2]; Yellow fever CC50),Yellow fever SI (YFV),EC50 (YFV),also measured
"Cc1ccc(NC(=O)c2nccnc2C(=O)Nc2ccc(F)cc2)c(-c2cc(C)n[nH]2)c1 [6a, N^2-(4-fluorophenyl)-N^3-(4-methyl-2-(3-methyl-1H-pyrazol-5-yl)phenyl) pyrazine-2,3 dicarboxamide]",> 116 µM,>4,26.5 µM,–,–,–,fold reduction in inhibitory properties against dengue virus (DENV (serotype 2)): 10 fold
"Cc1ccc(NC(=O)c2ccccc2C(=O)Nc2ccc(C)cc2-c2cc(C)n[nH]2)cc1 [7c, N^1-(4-methyl-2-(3-methyl-1H-pyrazol-5-yl)phenyl)-N^2-(p-tolyl)phthalamide]",> 117 µM,>4,29 µM,–,–,–,fold loss in DENV inhibitory activity (DENV (serotype 2)): 60 fold
"Cc1ccc(NC(=O)c2ccccc2NC(=O)c2ccc(F)cc2)c(-c2ccc(C)s2)c1 [13b, 2-(4-fluorobenzamido)-N-(4-methyl-2-(5-methylthiophen-2-yl)phenyl)benzamide]",> 113 µM,>35,3.2 µM,> 113 µM,1,> 113 µM,CC50 (in vitro [2]; Yellow fever CC50 (visual)): 12.5 µM
"Cc1ccc(NC(=O)c2ccccc2C(=O)NCc2ccccc2-c2ccsc2)cc1 [7j, N^1-(2-(thiophen-3-yl)benzyl)-N^2-(p-tolyl)phthalamide]",–,17,3 µM,–,23,2.6 µM,CC50 at 168 h (in vitro [2]; Yellow fever CC50): 61 µM; CC50 at 168 h (in vitro [1]; chlorocebus aethiops): 50 µM
"Cc1ccc(NC(=O)c2ccccc2C(=O)Nc2ccc(F)cc2)c(-c2ccc(C)s2)c1 [7f, N^1-(4-fluorophenyl)-N^2-(4-methyl-2-(5-methylthiophen-2-yl)phenyl)phthalamide]",> 113 µM,>39,2.9 µM,> 113 µM,>17,6.8 µM,–
"Cc1ccc(NC(=O)c2ccccc2C(=O)Nc2ccc(F)cc2)c(-c2cccs2)c1 [7b, N^1-(4-fluorophenyl)-N^2-(4-methyl-2-(thiophen-2-yl)phenyl)phthalamide]",> 117 µM,>29,4 µM,> 37 µM,>1.6,23.2 µM,–
"Cc1ccc(NC(=O)c2nccnc2C(=O)Nc2ccc(F)cc2)c(-c2cccs2)c1 [6c, N^2-(4-fluorophenyl)-N^3-(4-methyl-2-(thiophen-2-yl)phenyl)pyrazine-2,3-dicarboxamide]",> 116 µM,>25,4.6 µM,> 116 µM,–,23 µM,–
"Cc1ccc(NC(=O)c2nccnc2C(=O)Nc2ccccc2-c2cc(C)n[nH]2)cc1 [6n, N^2-(2-(3-methyl-1H-pyrazol-5-yl)phenyl)-N^3-(p-tolyl)pyrazine-2,3-di-carboxamide]",–,7,3.4 µM,> 13.6 µM,>34,0.4 µM,CC50 at 168 h (in vitro [1]; chlorocebus aethiops): 24 µM; fold reduced DENV inhibitory activity (DENV (serotype 2)): 7 fold
"Cc1ccc(NC(=O)c2nccnc2C(=O)Nc2ccc(C)cc2-c2ccsc2)cc1 [6h, N^2-(4-methyl-2-(thiophen-3-yl)phenyl)-N^3-(p-tolyl)pyrazine-2,3-dicarboxamide]",–,>29,0.5 to 3.4 µM,> 116 µM,1,> 116 µM,CC50 at 168 h (in vitro [1]; chlorocebus aethiops): 26 µM; EC50 (DENV (serotype 2)): < 0.9 µM
"Cc1ccc(NC(=O)c2nccnc2C(=O)Nc2ccc(C)cc2-c2cc(C)n[nH]2)cc1 [6b, N^2-(4-methyl-2-(3-methyl-1H-pyrazol-5-yl)phenyl)-N^3-(p-tolyl)pyrazine-2,3-dicarboxamide]",> 117 µM,>235,0.5 µM,–,–,–,CC50 (in vitro [1]; green monkey): > 116 µM; fold increase of DENV inhibitory properties (DENV (serotype 2)): 50 fold
"O=C(NCc1ccccc1-c1ccsc1)c1nccnc1C(=O)Nc1ccc(F)cc1 [6i, N^2-(4-fluorophenyl)-N^3-(2-(thiophen-3-yl)benzyl)pyrazine-2,3-dicarboxamide]",–,2,24 µM,–,19,3.9 µM,CC50 at 168 h (in vitro [2]; Yellow fever CC50): 76 µM; CC50 at 168 h (in vitro [1]; chlorocebus aethiops): 52 µM
"Cc1ccc(NC(=O)c2nccnc2C(=O)NCc2ccc(-c3ccsc3)cc2)cc1 [6l, N^2-(4-(thiophen-3-yl)benzyl)-N^3-(p-tolyl)pyrazine-2,3-dicarboxamide]",> 117 µM,>8,14 µM,> 117 µM,>5,21.5 µM,fold increase in DENV activity for the methyl congener (DENV (serotype 2)): 10 fold
"Cc1ccc(NC(=O)c2ccccc2C(=O)NCc2ccc(-c3ccsc3)cc2)cc1 [7l, N^1-(4-(thiophen-3-yl)benzyl)-N^2-(p-tolyl)phthalamide]",> 117 µM,>8,13.8 µM,> 117 µM,>35,3.3 µM,–
"Cc1ccc(NC(=O)c2nccnc2C(=O)Nc2ccc(F)cc2)c(-c2ccc(C)s2)c1 [6e, N^2-(4-fluorophenyl)-N^3-(4-methyl-2-(5-methylthiophen-2-yl)phenyl)pyrazine-2,3-dicarboxamide]",> 112 µM,1,> 112 µM,–,–,–,Dengue EC50 (DENV (serotype 2)): complete loss of DENV inhibitory activity
"Cc1ccc(NC(=O)c2ccccc2C(=O)Nc2ccc(C)cc2-c2ccc(C)s2)cc1 [7e, N^1-(4-methyl-2-(5-methylthiophen-2-yl)phenyl)-N^2-(p-tolyl)phthalamide]",> 114 µM,>57,2 µM,–,3.4,6.8 µM,CC50 at 168 h (in vitro [2]; Yellow fever CC50): 23 µM
"O=C(NCc1ccc(-c2ccsc2)cc1)c1nccnc1C(=O)Nc1ccc(F)cc1 [6k, N^2-(4-fluorophenyl)-N^3-(4-(thiophen-3-yl)benzyl)pyrazine-2,3-dicarboxamide]",> 116 µM,1,> 116 µM,> 116 µM,>6,18.5 µM,–
"Cc1cc(-c2ccccc2NC(=O)c2ccccc2C(=O)Nc2ccc(F)cc2)[nH]n1 [7m, N^1-(4-fluorophenyl)-N^2-(2-(3-methyl-1H-pyrazol-5-yl)phenyl)phthalamide]",> 120 µM,1,> 120 µM,> 120 µM,>10,12 µM,–
"Cc1ccc(NC(=O)c2ccccc2C(=O)Nc2ccc(F)cc2)c(-c2cc(C)n[nH]2)c1 [7a, N^1-(4-fluorophenyl)-N^2-(4-methyl-2-(3-methyl-1H-pyrazol-5-yl)phenyl)phthal-amide]",> 117 µM,>235,0.5 µM,–,–,–,fold more inhibitory against dengue virus (DENV (serotype 2)): 5 fold
"O=C(NCc1ccc(-c2ccsc2)cc1)c1ccccc1C(=O)Nc1ccc(F)cc1 [7k, N^1-(4-fluorophenyl)-N^2-(4-(thiophen-3-yl)benzyl)phthalamide]",> 116 µM,>7,16 µM,> 117 µM,>16,7.4 µM,–
"Cc1ccc(NC(=O)c2ccccc2C(=O)Nc2ccc(C)cc2-c2ccsc2)cc1 [7g, N^1-(4-methyl-2-(thiophen-3-yl)phenyl)-N^2-(p-tolyl)phthalamide]",–,–,0.5 µM,> 117 µM,>60,1.9 µM,CC50 at 168 h (in vitro [1]; chlorocebus aethiops): 12.9 µM; CC50 (in vitro [1]; green monkey): > 116 µM; EC50 (DENV (serotype 2)): 0.7 µM
"Cc1ccc(NC(=O)c2nccnc2C(=O)Nc2ccc(C)cc2-c2ccc(C)s2)cc1 [6f, N^2-(4-methyl-2-(5-methylthiophen-2-yl)phenyl)-N^3-(p-tolyl)pyrazine-2,3-dicarboxamide]",> 113 µM,1,> 113 µM,–,–,–,Dengue EC50 (DENV (serotype 2)): complete loss of DENV inhibitory activity
"Cc1ccc(NC(=O)c2nccnc2C(=O)Nc2ccc(C)cc2-c2cccs2)cc1 [6d, N^2-(4-methyl-2-(thiophen-2-yl)phenyl)-N^3-(p-tolyl)pyrazine-2,3-dicarboxamide]",> 117 µM,>235,0.5 µM,–,–,–,CC50 (in vitro [1]; green monkey): > 116 µM; fold increase in DENV activity for the methyl congener (DENV (serotype 2)): 10 fold
Cc1ccc(NC(=O)c2nc[nH]c2C(=O)Nc2ccc(F)cc2)c(-c2cc(C)n[nH]2)c1 [compound 1],–,–,2.5 µM,–,–,3.5 µM,–
